From ChEMBL document CHEMBL1131176, “Structure-based enhancement of boronic acid-based inhibitors of AmpC beta-lactamase” (J Med Chem, 1998)

Assays:
Beta-lactamase [1] = biological target: T1, Beta-lactamase (Escherichia coli K-12, UniProt P00811); assay: Inhibitory activity against Escherichia coli AmpC beta-lactamase.
Homo sapiens = organism: Homo sapiens; assay: Compound was tested for its specificity against Elastase
Chymotrypsinogen A = Chymotrypsinogen A (Bos taurus, UniProt P00766); assay: Compound was tested for its specificity against alpha-chymotrypsin
Beta-lactamase [2] = biological target: T1, Beta-lactamase; assay: Compound was tested for its specificity against AmpC beta-lactamase

T1 sequence (P00811 whole entry): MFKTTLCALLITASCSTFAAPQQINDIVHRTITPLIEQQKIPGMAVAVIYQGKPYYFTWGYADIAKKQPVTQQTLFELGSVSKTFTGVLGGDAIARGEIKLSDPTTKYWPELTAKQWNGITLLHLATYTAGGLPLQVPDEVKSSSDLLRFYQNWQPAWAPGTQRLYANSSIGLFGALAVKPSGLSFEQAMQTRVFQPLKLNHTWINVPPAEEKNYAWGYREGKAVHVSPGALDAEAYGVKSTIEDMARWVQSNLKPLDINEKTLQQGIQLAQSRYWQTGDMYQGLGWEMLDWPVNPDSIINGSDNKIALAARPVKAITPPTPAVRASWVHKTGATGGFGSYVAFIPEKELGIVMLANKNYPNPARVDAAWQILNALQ

Compound `OB(O)c1ccc(-c2ccc(B(O)O)cc2)cc1` has a Ki (Beta-lactamase [1]) of 0.2 µM.

For `CC(=O)c1ccc(B(O)O)s1`, the Ki (Beta-lactamase [1]) was 1.6 µM.

For `O=Cc1ccccc1B(O)O`, the Ki (Beta-lactamase [1]) was 25.3 µM.

With `O=Cc1ccc(B(O)O)cc1` the Ki (Beta-lactamase [1]) was 2.9 µM.

For `OB(O)c1cc2ccccc2c2ccccc12`, the Ki (Beta-lactamase [1]) was 7 µM.

For `OB(O)[C@@H]1CCOC1`, the IC50 (Homo sapiens) was over 200 µM, the IC50 (Chymotrypsinogen A) was over 200 µM and the IC50 (Beta-lactamase [2]) was 5 µM.

`OB(O)c1ccc(B(O)O)cc1` gave a Ki (Beta-lactamase [1]) of 3.9 µM.

For `OB(O)c1cccs1`, the IC50 (Homo sapiens) was 200 µM and the IC50 (Chymotrypsinogen A) was over 200 µM.

In the case of `OB(O)c1ccco1`, the Ki (Beta-lactamase [1]) is reported as over 100 µM.

For `OB(O)c1ccc(Cl)s1`, the IC50 (Homo sapiens) was 200 µM, the IC50 (Chymotrypsinogen A) was over 100 µM and the IC50 (Beta-lactamase [2]) was 2 µM. It also gave a Ki (Beta-lactamase [1]) of 0.41 µM.

In the case of `OB(O)c1cc2ccccc2o1`, the IC50 (Chymotrypsinogen A) is reported as 14 µM, the IC50 (Beta-lactamase [2]) is reported as 0.6 µM and the Ki (Beta-lactamase [1]) is reported as 0.22 µM.

Work on `OB(O)c1ccc(C(F)(F)F)cc1` yielded a Ki (Beta-lactamase [1]) of 3 µM.

With `OB(O)c1ccc(Br)cc1` the Ki (Beta-lactamase [1]) was 3.6 µM.

In the case of `COc1ccc(B(O)O)cc1`, the Ki (Beta-lactamase [1]) is reported as 5.9 µM.

With `O=Cc1ccsc1B(O)O` the Ki (Beta-lactamase [1]) was 3.8 µM.

`OB(O)c1cccc(C(F)(F)F)c1` gave an IC50 (Homo sapiens) of over 200 µM, an IC50 (Chymotrypsinogen A) of over 200 µM and an IC50 (Beta-lactamase [2]) of 5 µM. It also gave a Ki (Beta-lactamase [1]) of 1.1 µM.

Work on `OB(O)c1ccsc1` yielded a Ki (Beta-lactamase [1]) of 22.1 µM.

Work on `OB(O)c1ccc(F)cc1` yielded a Ki (Beta-lactamase [1]) of 6.4 µM.

Work on `OB(O)c1cc2ccccc2s1` yielded an IC50 (Chymotrypsinogen A) of 5 µM.

Work on `OB(O)c1cccc2ccccc12` yielded a Ki (Beta-lactamase [1]) of 12 µM.

`O=C(O)c1cccc(B(O)O)c1` showed a Ki (Beta-lactamase [1]) of over 100 µM.

With `CCCCB(O)O` [BUTYL BORONIC ACID] the Ki (Beta-lactamase [1]) was over 100 µM.

Work on `OB(c1ccccc1)c1ccccc1` [DIPHENYL BORINIC ACID] yielded a Ki (Beta-lactamase [1]) of over 100 µM.

In the case of `CN(C)c1cccc2c(S(=O)(=O)Nc3cccc(B(O)O)c3)cccc12` [M(DANSYLAMIDOPHENYL)BORONIC ACID], the IC50 (Homo sapiens) is reported as 50 µM, the IC50 (Chymotrypsinogen A) is reported as over 100 µM and the IC50 (Beta-lactamase [2]) is reported as 5 µM. For the same compound, the Ki (Beta-lactamase [1]) was 1.3 µM.

`OB(O)c1ccccc1` [PHENYLBORONIC ACID] showed a Ki (Beta-lactamase [1]) of 10.5 µM.

With `Cc1ccc(B(O)O)cc1` [TOLYL BORONIC ACID] the Ki (Beta-lactamase [1]) was 5.4 µM.
